Measurements from patent US11452725B2, “Chiral diaryl macrocycles and uses thereof” (TURNING POINT THERAPEUTICS, INC., priority 2015, dated 2022).
Entries after “also recorded” stand apart in the source; their conditions may differ.

Columns and labels:
[1] = system: KM12 cell line; assay: cells; details: Homo sapiens, KM12, 72 h, read-out: Cell proliferation of KM12 cell line IC50
[2] = molecular target: T1, AXL (Homo sapiens, UniProt P30530); assay: Biochemical kinase assay (Reaction Biology); details: 10 μM ATP
T1 construct: purchased Reaction Biology Corporation (contract assay)
T1 sequence (P30530 26-894): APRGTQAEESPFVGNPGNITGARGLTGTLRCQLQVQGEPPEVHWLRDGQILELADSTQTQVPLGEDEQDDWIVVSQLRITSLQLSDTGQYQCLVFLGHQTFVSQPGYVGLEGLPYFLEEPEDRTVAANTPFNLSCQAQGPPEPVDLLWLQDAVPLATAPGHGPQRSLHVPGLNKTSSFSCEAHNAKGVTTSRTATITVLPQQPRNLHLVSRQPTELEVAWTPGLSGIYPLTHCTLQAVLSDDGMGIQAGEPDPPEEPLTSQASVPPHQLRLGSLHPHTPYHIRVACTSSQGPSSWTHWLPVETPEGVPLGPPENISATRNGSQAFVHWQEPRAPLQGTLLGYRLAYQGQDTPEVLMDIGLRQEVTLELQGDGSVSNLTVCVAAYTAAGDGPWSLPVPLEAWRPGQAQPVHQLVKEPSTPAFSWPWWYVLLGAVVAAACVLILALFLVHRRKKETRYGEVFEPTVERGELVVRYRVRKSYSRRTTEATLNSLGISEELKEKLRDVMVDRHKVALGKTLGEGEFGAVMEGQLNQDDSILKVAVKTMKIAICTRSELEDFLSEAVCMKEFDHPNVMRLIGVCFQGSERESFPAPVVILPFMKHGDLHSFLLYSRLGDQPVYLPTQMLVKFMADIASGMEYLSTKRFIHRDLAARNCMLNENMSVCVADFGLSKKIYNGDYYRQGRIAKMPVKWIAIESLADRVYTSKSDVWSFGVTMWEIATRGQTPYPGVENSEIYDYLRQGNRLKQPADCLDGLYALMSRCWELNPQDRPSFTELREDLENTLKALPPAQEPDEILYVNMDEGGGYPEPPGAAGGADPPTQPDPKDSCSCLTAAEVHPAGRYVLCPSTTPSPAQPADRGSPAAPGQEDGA

[3] = system: Ba/F3 EML4-ALK wild type cell line; assay: Cell proliferation assay (CellTiter-Glo); assay type: cell-based; details: Mus musculus, 72 hours
[4] = system: Ba/F3 EML4-ALK C1156Y cell line; assay: Cell proliferation assay (CellTiter-Glo); assay type: cell-based; details: Mus musculus, 72 hours
[5] = system: Ba/F3 CD74-ROS1 G2032R cell line; assay: Cell proliferation assay (CellTiter-Glo); assay type: cell-based; details: Mus musculus, BaF3; 72 hours
[6] = molecular target: T2, SNARK (Homo sapiens, UniProt Q9H093); assay: Biochemical kinase assay (Reaction Biology); details: 10 μM ATP
T2 construct: purchased Reaction Biology Corporation

[7] = system: Ba/F3 EML4-ALK G1202R tumors; assay: Ba/F3 EML4-ALK G1202R subcutaneous xenograft model; assay type: in vivo, SCID/Beige mice; details: 75 mg/kg BID orally, 17 days
[8] = molecular target: T3, TYK2 (Homo sapiens, UniProt P29597); assay: Biochemical kinase assay (Reaction Biology); details: 10 μM ATP
T3 construct: purchased Reaction Biology Corporation (contract assay)
T3 sequence (P29597 whole entry): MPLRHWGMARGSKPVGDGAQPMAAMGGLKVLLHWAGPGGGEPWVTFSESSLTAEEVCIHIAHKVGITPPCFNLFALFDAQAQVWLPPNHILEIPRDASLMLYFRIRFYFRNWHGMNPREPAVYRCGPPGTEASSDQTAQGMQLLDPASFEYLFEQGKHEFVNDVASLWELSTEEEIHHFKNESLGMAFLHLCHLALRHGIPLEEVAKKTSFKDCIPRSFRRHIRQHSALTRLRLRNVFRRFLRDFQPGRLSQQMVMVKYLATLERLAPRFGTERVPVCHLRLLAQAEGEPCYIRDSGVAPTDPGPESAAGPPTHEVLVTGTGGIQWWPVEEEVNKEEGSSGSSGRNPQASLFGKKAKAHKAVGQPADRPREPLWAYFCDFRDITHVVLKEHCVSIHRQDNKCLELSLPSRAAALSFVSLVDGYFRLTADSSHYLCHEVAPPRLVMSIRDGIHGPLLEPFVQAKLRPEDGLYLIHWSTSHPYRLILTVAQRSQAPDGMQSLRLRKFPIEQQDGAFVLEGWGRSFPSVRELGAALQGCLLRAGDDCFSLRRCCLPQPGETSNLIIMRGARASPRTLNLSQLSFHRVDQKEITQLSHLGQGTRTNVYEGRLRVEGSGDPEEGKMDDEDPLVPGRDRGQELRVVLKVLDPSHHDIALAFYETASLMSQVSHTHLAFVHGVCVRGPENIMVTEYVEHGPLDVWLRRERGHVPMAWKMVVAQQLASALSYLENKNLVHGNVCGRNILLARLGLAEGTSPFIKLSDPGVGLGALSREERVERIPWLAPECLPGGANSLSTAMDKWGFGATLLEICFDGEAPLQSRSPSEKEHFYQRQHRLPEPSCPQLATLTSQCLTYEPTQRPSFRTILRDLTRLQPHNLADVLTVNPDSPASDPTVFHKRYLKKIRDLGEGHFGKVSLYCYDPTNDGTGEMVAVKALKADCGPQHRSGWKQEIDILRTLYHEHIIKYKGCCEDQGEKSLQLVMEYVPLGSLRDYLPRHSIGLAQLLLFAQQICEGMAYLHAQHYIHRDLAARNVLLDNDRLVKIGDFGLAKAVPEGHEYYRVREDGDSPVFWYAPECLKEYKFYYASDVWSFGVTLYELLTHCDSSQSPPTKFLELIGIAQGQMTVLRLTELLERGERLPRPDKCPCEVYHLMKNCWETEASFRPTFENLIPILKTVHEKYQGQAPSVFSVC

[9] = molecular target: T4, EPHA1 (Homo sapiens, UniProt P21709); assay: Biochemical kinase assay (Reaction Biology); details: 10 μM ATP
T4 construct: purchased Reaction Biology Corporation (contract assay)
T4 sequence (P21709 26-976): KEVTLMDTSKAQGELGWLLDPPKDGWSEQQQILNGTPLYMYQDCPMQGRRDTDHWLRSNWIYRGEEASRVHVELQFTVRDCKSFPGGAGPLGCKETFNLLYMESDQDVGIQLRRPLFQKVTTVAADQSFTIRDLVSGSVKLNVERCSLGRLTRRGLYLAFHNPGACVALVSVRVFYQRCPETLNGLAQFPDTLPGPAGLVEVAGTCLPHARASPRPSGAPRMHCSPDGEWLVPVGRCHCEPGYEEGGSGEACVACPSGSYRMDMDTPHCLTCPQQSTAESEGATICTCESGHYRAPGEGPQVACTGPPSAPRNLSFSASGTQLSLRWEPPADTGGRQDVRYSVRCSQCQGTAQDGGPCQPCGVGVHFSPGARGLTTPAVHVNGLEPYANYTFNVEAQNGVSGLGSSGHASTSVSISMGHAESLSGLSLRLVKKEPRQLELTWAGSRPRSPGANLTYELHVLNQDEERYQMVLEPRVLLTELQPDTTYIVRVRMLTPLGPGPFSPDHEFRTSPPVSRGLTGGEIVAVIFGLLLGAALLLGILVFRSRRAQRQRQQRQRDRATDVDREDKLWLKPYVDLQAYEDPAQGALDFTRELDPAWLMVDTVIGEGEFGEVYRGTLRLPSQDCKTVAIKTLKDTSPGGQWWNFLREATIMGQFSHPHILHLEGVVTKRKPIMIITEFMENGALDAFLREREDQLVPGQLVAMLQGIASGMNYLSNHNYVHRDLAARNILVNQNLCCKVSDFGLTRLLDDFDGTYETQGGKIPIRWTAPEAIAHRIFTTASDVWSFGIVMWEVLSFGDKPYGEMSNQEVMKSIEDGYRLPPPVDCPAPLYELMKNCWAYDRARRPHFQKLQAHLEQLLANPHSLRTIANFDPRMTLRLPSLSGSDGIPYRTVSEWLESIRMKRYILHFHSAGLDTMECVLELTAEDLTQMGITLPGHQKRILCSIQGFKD

[10] = molecular target: T5, DDR1 (Homo sapiens, UniProt Q08345); assay: Biochemical kinase assay (Reaction Biology); details: 10 μM ATP
T5 construct: purchased Reaction Biology Corporation
T5 sequence (Q08345 19-913): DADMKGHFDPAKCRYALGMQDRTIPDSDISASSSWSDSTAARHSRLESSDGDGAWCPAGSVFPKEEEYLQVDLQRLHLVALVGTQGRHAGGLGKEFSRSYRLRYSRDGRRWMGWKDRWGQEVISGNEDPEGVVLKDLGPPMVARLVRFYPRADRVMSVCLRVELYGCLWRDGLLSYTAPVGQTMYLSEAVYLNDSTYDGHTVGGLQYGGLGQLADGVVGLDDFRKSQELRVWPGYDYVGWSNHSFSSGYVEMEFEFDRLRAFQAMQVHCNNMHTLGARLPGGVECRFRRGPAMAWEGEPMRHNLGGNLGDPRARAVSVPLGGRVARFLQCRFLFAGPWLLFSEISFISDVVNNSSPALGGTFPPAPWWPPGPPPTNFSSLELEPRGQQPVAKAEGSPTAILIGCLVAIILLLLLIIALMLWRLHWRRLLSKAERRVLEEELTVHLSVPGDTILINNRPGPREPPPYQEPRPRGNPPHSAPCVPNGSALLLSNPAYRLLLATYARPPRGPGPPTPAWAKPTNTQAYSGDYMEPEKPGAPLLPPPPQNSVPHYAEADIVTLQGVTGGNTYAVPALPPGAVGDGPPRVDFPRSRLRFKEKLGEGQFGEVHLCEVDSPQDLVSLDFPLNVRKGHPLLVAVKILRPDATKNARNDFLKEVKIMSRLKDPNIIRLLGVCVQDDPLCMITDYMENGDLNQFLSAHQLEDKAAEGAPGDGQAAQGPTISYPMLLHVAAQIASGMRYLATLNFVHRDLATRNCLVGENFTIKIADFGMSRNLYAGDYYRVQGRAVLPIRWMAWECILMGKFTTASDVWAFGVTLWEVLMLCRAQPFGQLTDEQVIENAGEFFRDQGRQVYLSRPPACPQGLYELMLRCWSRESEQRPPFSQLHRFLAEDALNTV

[11] = system: NIH3T3 SDC4-ROS1 WT tumors; assay: NIH3T3 SDC4-ROS1 WT subcutaneous xenograft model; assay type: in vivo, athymic nude mice; details: 26 days
Procedure: Female athymic nude mice and SCID/Beige mice (5-8 weeks of age) were obtained from Charles River Laboratory and were housed in Innovive IVC disposable cages on HEPA filtered ventilated racks with ad libitum access to rodent chow and water. Five million cells in 100 μL, serum-free medium were implanted subcutaneously in the right flank region of the mouse. Karpas299 cells were implanted into the SCID/Beige mice. KM12 cells, NIH3T3 EML4-ALK wild type mutant cells, and NIH3T3 SCD4-ROS1 wild type mutant cells were implanted into the athymic nude mice, respectively. All models except KM12 were implanted with 50% matrigel (Corning, Inc) in the medium. Tumor size and body weight were measured on designated days. Tumor size was measured with an electronic caliper and tumor volume was calculated as the product of length*width^2*0.5.
The SDC4-ROS1 fusion gene is considered as the driver for tumor progression in NSCLC. […] The control group of mice were given vehicle only. Tumor volume was measured by caliper on the indicated days and is shown at mean±sem in FIG. 9.

[12] = molecular target: T6, MARK3 (Homo sapiens, UniProt P27448); assay: Biochemical kinase assay (Reaction Biology); details: 10 μM ATP
T6 construct: purchased Reaction Biology Corporation (contract assay)

[13] = molecular target: T7, LCK (Homo sapiens, UniProt P06239); assay: Biochemical kinase assay (Reaction Biology); details: 10 μM ATP
T7 construct: purchased Reaction Biology Corporation (contract assay)
T7 sequence (P06239 whole entry): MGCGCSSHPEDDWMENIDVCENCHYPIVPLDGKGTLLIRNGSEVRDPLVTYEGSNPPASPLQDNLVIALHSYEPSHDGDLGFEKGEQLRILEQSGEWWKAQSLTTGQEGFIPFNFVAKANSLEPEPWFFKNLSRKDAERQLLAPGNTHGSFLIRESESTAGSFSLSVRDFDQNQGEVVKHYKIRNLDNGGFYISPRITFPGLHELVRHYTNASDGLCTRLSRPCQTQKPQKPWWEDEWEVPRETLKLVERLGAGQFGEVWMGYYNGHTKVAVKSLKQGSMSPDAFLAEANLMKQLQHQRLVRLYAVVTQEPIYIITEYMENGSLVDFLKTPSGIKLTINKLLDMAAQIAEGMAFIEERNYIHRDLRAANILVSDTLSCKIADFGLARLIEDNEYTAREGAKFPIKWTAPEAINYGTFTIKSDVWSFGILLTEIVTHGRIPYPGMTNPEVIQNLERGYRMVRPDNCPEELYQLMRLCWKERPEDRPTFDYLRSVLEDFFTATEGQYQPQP

[14] = system: Ba/F3 TEL-TRKC (ETV6-TRKC) G623R cell line; assay: Cell proliferation assay (CellTiter-Glo); assay type: cell-based; details: Mus musculus, BaF3; 72 hours
[15] = system: CD44; assay: CD44 expression by immunoblotting in H2228 cells; assay type: cell-based, human; details: 48 hours treatment, 0-1000 nM
Procedure: NSCLC cell line H2228 (harboring endogenous EML4-ALK fusion gene) was cultured in RPMI medium supplemented with 10% fetal bovine serum and 100 U/mL of penicillin/streptomycin. Ba/F3 and NIH3T3 cells stably expressing ROS1, or TRKA, or TRKB, or TRKC (WT or mutant) were cultured as mentioned above. […] Cells were collected after treatment and lysed in RIPA buffer (50 mM Tris, pH 7.4, 150 mM NaCl, 1% NP-40, 0.5% Deoxycholate, 0.1% SDS) supplemented with 10 mM EDTA, 1× Halt protease and phosphatase inhibitors (Thermo Scientific). Protein lysates (approximately 20 μg) was resolved on 4-12% Bolt Bis-Tris precasted gels with MES running buffer (Life Technologies), transferred to nitrocellulose membranes using Trans-Blot Turbo Transfer System (Bio-Rad) and detected with antibodies targeting phosphorylated phosphorylated ROS1 and total ROS1 (Cell Signaling Technology), phosphorylated TRK A/B (Cell Signaling Technology), total TRKA antibody (Santa Cruz Biotechnology), phosphorylated SRC Y416 (Cell Signaling Technology), total SRC (Cell Signaling Technology), phosphorylated FAK Y576/577 (Cell Signaling Technology), total FAK (Cell Signaling Technology), phosphorylated paxillin Y118 (Cell Signaling Technology), total paxillin (Cell Signaling Technology), phosphorylated EGFR and total EGFR, CD44, and Tubulin (Sigma). […]

[16] = system: Ba/F3 TEL-TRKB (ETV6-TRKB) G639R cell line; assay: Cell proliferation assay (CellTiter-Glo); assay type: cell-based; details: Mus musculus, BaF3; 72 hours
[17] = system: Ba/F3 EML4-ALK G1202R cell line; assay: Cell proliferation assay (CellTiter-Glo); assay type: cell-based; details: Mus musculus, 72 hours
[18] = system: KM12 tumors; assay: KM12 colorectal cancer subcutaneous xenograft model; assay type: in vivo, athymic nude mice; details: seven days
[19] = system: Ba/F3 EML4-ALK L1196M cell line; assay: Cell proliferation assay (CellTiter-Glo); assay type: cell-based; details: Mus musculus, 72 hours
[20] = molecular target: T8, BTK (Homo sapiens, UniProt Q06187); assay: Biochemical kinase assay (Reaction Biology); details: 10 μM ATP
T8 construct: purchased Reaction Biology Corporation (contract assay)
T8 sequence (Q06187 whole entry): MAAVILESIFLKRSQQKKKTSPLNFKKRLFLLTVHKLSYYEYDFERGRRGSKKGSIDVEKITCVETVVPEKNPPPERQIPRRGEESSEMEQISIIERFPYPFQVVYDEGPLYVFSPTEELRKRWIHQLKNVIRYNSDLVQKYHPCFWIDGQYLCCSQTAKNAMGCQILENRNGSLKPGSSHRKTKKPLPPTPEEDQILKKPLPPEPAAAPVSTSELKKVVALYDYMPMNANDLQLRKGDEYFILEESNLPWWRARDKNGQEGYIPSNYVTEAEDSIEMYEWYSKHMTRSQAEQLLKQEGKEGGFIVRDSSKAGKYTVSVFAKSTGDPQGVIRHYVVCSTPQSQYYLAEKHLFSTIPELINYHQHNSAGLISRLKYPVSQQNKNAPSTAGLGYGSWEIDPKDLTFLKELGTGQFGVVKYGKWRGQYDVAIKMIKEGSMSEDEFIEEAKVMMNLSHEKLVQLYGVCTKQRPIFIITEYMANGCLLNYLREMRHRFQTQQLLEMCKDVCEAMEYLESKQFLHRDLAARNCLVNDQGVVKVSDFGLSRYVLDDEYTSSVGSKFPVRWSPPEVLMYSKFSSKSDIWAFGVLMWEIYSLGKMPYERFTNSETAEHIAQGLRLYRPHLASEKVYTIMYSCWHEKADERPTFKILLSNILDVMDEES

[21] = system: SET-2 cell line; assay: Cell proliferation assay (CellTiter-Glo); assay type: cell-based; details: Homo sapiens, 72 hours, JAK2 V617F mutation
[22] = Example 13: 15 mg/kg BID orally
[23] = Example 13: 75 mg/kg BID orally

C[C@H]1CNC(=O)c2cnn3ccc(nc23)N[C@H](C)c2cc(F)ccc2O1 [Compound 1, (7S,13R)-11-fluoro-7,13-dimethyl-6,7,13,14-tetrahydro-1,15-ethenopyrazolo[4,3-f][1,4,8,10]benzoxatriazacyclotridecin-4(5H)-one]
IC50 [1]: 0.3 nM
IC50 [2]: 149 nM
IC50 [3]: 17.8 nM
IC50 [4]: 98 nM
IC50 [6]: 13 nM
mice exhibiting tumor regression [7]: 4 of 8
IC50 [8]: 21.6 nM
IC50 [9]: 25 nM
IC50 [10]: 5.7 nM
mice exhibiting tumor regression ([11]; 15 mg/kg BID orally): 7 of 8
tumor regression (REG) ([11]; 15 mg/kg BID orally): 39%
mice exhibiting tumor regression ([11]; 50 mg/kg BID orally): 7 of 7
tumor regression (REG) ([11]; 50 mg/kg BID orally): 69%
IC50 [12]: 512 nM
IC50 [13]: 18.6 nM
IC50 [14]: 3 nM
CD44 expression level [15]: down-regulates CD44 expression; also recorded: suppressed CD44 expression level in H2228 cells in a concentration-dependent manner
IC50 [16]: 0.6 nM
IC50 [17]: 20.5 nM
mice exhibiting tumor regression [18, 22]: 8 of 8
tumor regression (REG) [18, 22]: 13%
mice exhibiting tumor regression [18, 23]: 5 of 8
tumor regression (REG) [18, 23]: 11%
Tumor growth inhibition (TGI) ([18]; Example 15: 1 mg/kg BID orally): 77%
mice exhibiting tumor regression ([18]; Example 15: 3 mg/kg BID orally): 2 of 10
mice exhibiting tumor regression ([18]; Example 15: 15 mg/kg BID orally): 5 of 10
tumor regression (REG) ([18]; Example 15 dose dependent study: 15 mg/kg BID orally): 1%
IC50 [19]: 50 nM
IC50 [20]: 23.7 nM
IC50 [21]: 169 nM
